How the values were obtained:
[1] = tested on: D458Med cells; experiment: miRNA mimic library screen, CellTiter-Glo cell viability; assay type: cell-based; conditions: D458Med cells, 72 hours
Method: To identify miRNAs that may sensitize VCR response in MB, a high-throughput screening platform was combined with a library of 1,902 chemically synthesized human miRNA mimics. The miRNAs are arrayed in a one-miRNA-one-well format in 96-well microtiter plates. Reverse transfection of Group 3/c-Myc-amplified D458Med cells was performed in triplicate in the presence and absence of a sublethal dose of VCR, which was optimized in four MB cell lines before the screen (FIG. 2A). Cells were subjected to VCR at an IC20 lethal concentration for 72 hours after 48 hours of transfection, and cell viability was measured (FIG. 1A). Candidate miRNAs were prioritized for validation by functional and interaction assays using standard Student t-tests (with pooled variance), false discovery rate (Q=0.5%), and by using the magnitude of response (lowest 2.5 percentile of the distribution of the μVCR/μControl ratios).
miRNA mimic library screen. The primary screen was conducted using MI00200 MISSION microRNA Mimic v.17, in which miRNA mimics were arrayed in a one-miRNA-one-well format in 96-well microtiter plates. […] Cell viability was assessed using CellTiter-Glo (Promega, Madison, Wis., USA) according to the manufacturer's protocol. ath-miR-416 or cel-miR-243 was added as a negative control, whereas siRNA against PLK-1 was used as a positive control in each plate. […]

[2] = tested on: melanoma cells; conditions: cited from earlier work

Row | Structure (SMILES) | 20% inhibitory concentration [1] [nM] | RAD51 expression [2] | homologous recombination (HR) [2]
1 | CC[C@]1(O)C[C@H]2CN(CCc3c([nH]c4ccccc34)[C@@](C(=O)OC)(c3cc4c(cc3OC)N(C=O)[C@H]3[C@@](O)(C(=O)OC)[C@H](OC(C)=O)[C@]5(CC)C=CCN6CC[C@]43[C@@H]65)C2)C1 [VCR, vincristine, reference compound] | 2 | – | –
2 | Nc1ccccc1NC(=O)c1ccc(CNC(=O)OCc2cccnc2)cc1 [MS-275] | – | decreases RAD51 expression | blocks HR

Reference: US20210071180A1, “MICRORNA 584-5P COMPOSITIONS AND METHODS FOR TREATING CANCER” (BOARD OF REGENTS, THE UNIVERSY OF TEXAS SYSTEM, priority 2018, published 2021)
